The test system of series [1] is Plasmodium falciparum NF54. In words: Parasite lactate dehydrogenase (pLDH) assay over 72 h, CQ-sensitive strain. Type of series: cell-based. The settings on record: NF54, 72 h, read-out: Plasmodium falciparum IC50 NF54. The procedure: (§1) The assay was performed in quadruplicate. The data were analyzed by nonlinear regression analysis using the GraphPad PRISM version 5.00 program to determine the IC50 of each compound.

Series [2] has as its system Plasmodium falciparum DD2. Put plainly: Parasite lactate dehydrogenase (pLDH) assay over 72 h, CQ-resistant strain. The settings on record: Plasmodium falciparum, DD2, 72 h, read-out: Plasmodium falciparum IC50 DD2. Type of series: cell-based. The procedure:
as §1

For series [3], the system named is gametocytes. More on the design: method as in Coertzen et al., 2018. Particulars: ref Coertzen et al., 2018; cited from earlier work.
For series [4] the following is noted: human, in vivo; cited from earlier work.
On the set-up of series [5]: method as in Agency, 2009. Particulars: ref Agency, 2009; cited from earlier work.
For series [6], the system named is asexual blood stage of P. falciparum. Details: method as in Coertzen et al., 2018. Particulars: ref Coertzen et al., 2018; cited from earlier work.
Series [7] can be described thus: Kinetic solubility in PBS. Type of series: physicochemical. The settings on record: phosphate buffer saline (PBS), aqueous buffer, kinetic from dmso stock. The procedure:
. […] The aqueous mobile phase was water with 0.1% formic acid and the organic mobile phase was acetonitrile with 0.1% formic acid. The gradient method has a flow rate of 0.8 mL/min, with a total run time of 2.5 min starting at 5% organic and increasing to 95% at 1.4 min, holding for 40 s before returning to 5% to re-equilibrate the column. • ii. Lipophilicity. Stock solutions (10 mM) of compounds were diluted to 100 μM in 96-well deep-well plate containing 300 µL of 1-octanol and 300 µL of phosphate buffer at pH 7.4. The plate was agitated on an orbital shaker at 750 rpm for 2 h. The organic and buffer layers of each well were transferred separately to a new analysis plate. The samples were analysed with the HPLC diode array detection as described for kinetic solubility. Samples from both layers were analysed to determine LogD7.4 values. • iii. Passive permeability. A parallel artificial membrane permeation assay (PAMPA) was used to assess the passive permeability of compounds with a 96-well MultiScreen filter plate ([…] pore size, Millipore). The filter plate was precoated with 5% hexadecane in hexane. Stock solutions of compounds were diluted to 1 mM in a donor buffer (pH 6.5). Lucifer yellow was added to the apical wells of the precoated MultiScreen plate containing compound donor solution. The donor buffer solutions were spiked with each test compound (1 mM). The acceptor-buffer solution was prepared by adding 10 μL DMSO to 990 μL acceptor buffer (pH 7.4) and 250 μL were added to the basolateral (acceptor) wells. The donor plate was carefully inserted into the acceptor plate and incubated at room temperature for 4 h. After the incubation period, 50 μL of samples from the acceptor plate were transferred to a round bottom 96-well plate, together with 30 μL of donor buffer for matrix matching. Theoretical equilibrium samples for each test compound were prepared by adding 150 μL of donor solutions to 250 μL acceptor solutions and left at room temperature. These theoretical equilibrium samples represent complete transfer of the compound into the donor well. For the theoretical equilibrium samples, 80 μL were added to the analysis plate. Lastly, 160 μL of the internal standard carbamazepine (0.1 μM) was added to all acceptor and equilibrium samples. A portion of the sample containing Lucifer yellow was analyzed on a BioRad iMarkTM Microplate Absorbance Reader (BioRad, Hercules, CA, United States; […]. Samples were analysed using reverse phase Gemini NX-C18 column (5 μm, 2.1 mm × 50 mm) with a Shimadzu HPLC coupled with an AB Sciex 3200 Q TRAP MS). […]. Plasma stability. Stock solutions of compounds in DMSO (10 mM) were used to spike pooled human plasma. 90 μL of each sample was transferred in duplicate to 6 different wells of a 96-deep well plate. An aliquot of each sample was immediately quenched with ice cold acetonitrile containing the internal standard carbamazepine (0.1 µM), after which the plate was incubated in a water bath (37°C for […]). Aliquots of samples were removed at 5, 15, 40, 60 and 180 min and quenched with ice cold acetonitrile. After samples of the final time point were precipitated, the supernatant was transferred to a round bottom 96-well plate for analysis by LC-MS/MS using a reverse phase Gemini NX-C18 column (5 μm, 2.1 mm × 50 mm) with a Shimadzu HPLC coupled with an AB Sciex 3200 Q TRAP MS) operated at unit resolution in the multiple reaction monitoring (MRM) mode. The aqueous phase consisted of water with 0.1% formic acid and the organic mobile phase consisted of methanol and acetonitrile (1:1, (v/v)) with 0.1% formic acid. […]. The peak area ratios were used to calculate the amount of parent compound remaining and t1/2 in plasma, using the following equations.

Series [8] can be described thus: Metabolic stability in mouse liver microsomes. Type of series: in vitro ADME. The method, then:
(§2) Eq. 4 Predicted t1/2 t1/2=−0.693/λ (4) Where λ is the slope of the Ln % parent remaining vs. time curve. • v. Plasma protein binding. Plasma protein binding was determined in pooled human plasma using an ultracentrifugation method. Stock solutions of test compounds (10 mM) were diluted in phosphate buffer and spiked into plasma in deep well 96-well plates (10 µM). An aliquot of each compound was immediately precipitated with ice cold acetonitrile containing the internal standard carbamazepine (0.1 μM). These served as total concentration samples. After incubation in a water bath at 37°C for 1 h, the samples were transferred to ultracentrifuge tubes in duplicate and centrifuged for 4 h at 37°C and 30,000 g (Optima L-80XP, Beckman). Following centrifugation, the supernatant was transferred to the plate containing the total concentration samples and precipitated with ice cold acetonitrile containing the internal standard. Analyte concentrations of all compounds were determined via LC-MS/MS (reverse phase Gemini NX-C18 column and Shimadzu HPLC coupled with an AB Sciex 3200 Q TRAP MS) as described above. • vi. Metabolic stability. A 5-point metabolic stability assay in human and mouse liver microsomes were performed in duplicate in 96-well plates. […] The cofactor NADPH was added, and the reactions were subsequently stopped at time points 5, 10, 30 and 60 min by removal of an aliquot and quenching with ice cold acetonitrile containing the internal standard. The supernatant of all samples was analysed via LC-MS/MS analysis (reverse phase Gemini NX-C18 column and Shimadzu HPLC and AB Sciex 3200 Q TRAP MS) as described above.

Series [9] can be described thus: Metabolic stability in human liver microsomes. Type of series: in vitro ADME. The method, then:
as §2

Series [10] is described as follows: Plasma stability in pooled human plasma. Type of series: in vitro ADME. The settings on record: 37°C. The procedure:
. […] The aqueous mobile phase was water with 0.1% formic acid and the organic mobile phase was acetonitrile with 0.1% formic acid. The gradient method has a flow rate of 0.8 mL/min, with a total run time of 2.5 min starting at 5% organic and increasing to 95% at 1.4 min, holding for 40 s before returning to 5% to re-equilibrate the column. • ii. Lipophilicity. Stock solutions (10 mM) of compounds were diluted to 100 μM in 96-well deep-well plate containing 300 µL of 1-octanol and 300 µL of phosphate buffer at pH 7.4. The plate was agitated on an orbital shaker at 750 rpm for 2 h. The organic and buffer layers of each well were transferred separately to a new analysis plate. The samples were analysed with the HPLC diode array detection as described for kinetic solubility. Samples from both layers were analysed to determine LogD7.4 values. • iii. Passive permeability. A parallel artificial membrane permeation assay (PAMPA) was used to assess the passive permeability of compounds with a 96-well MultiScreen filter plate ([…] pore size, Millipore). The filter plate was precoated with 5% hexadecane in hexane. Stock solutions of compounds were diluted to 1 mM in a donor buffer (pH 6.5). Lucifer yellow was added to the apical wells of the precoated MultiScreen plate containing compound donor solution. The donor buffer solutions were spiked with each test compound (1 mM). The acceptor-buffer solution was prepared by adding 10 μL DMSO to 990 μL acceptor buffer (pH 7.4) and 250 μL were added to the basolateral (acceptor) wells. The donor plate was carefully inserted into the acceptor plate and incubated at room temperature for 4 h. After the incubation period, 50 μL of samples from the acceptor plate were transferred to a round bottom 96-well plate, together with 30 μL of donor buffer for matrix matching. Theoretical equilibrium samples for each test compound were prepared by adding 150 μL of donor solutions to 250 μL acceptor solutions and left at room temperature. These theoretical equilibrium samples represent complete transfer of the compound into the donor well. For the theoretical equilibrium samples, 80 μL were added to the analysis plate. Lastly, 160 μL of the internal standard carbamazepine (0.1 μM) was added to all acceptor and equilibrium samples. A portion of the sample containing Lucifer yellow was analyzed on a BioRad iMarkTM Microplate Absorbance Reader (BioRad, Hercules, CA, United States; […]. Samples were analysed using reverse phase Gemini NX-C18 column (5 μm, 2.1 mm × 50 mm) with a Shimadzu HPLC coupled with an AB Sciex 3200 Q TRAP MS). […]. Plasma stability. Stock solutions of compounds in DMSO (10 mM) were used to spike pooled human plasma. […]
. Plasma protein binding was determined in pooled human plasma using an ultracentrifugation method. […]

Series [11] in a line: In vivo PK, iv and oral, whole blood. Details: species or system C57BL/6 mice. The procedure: • i. Animals. […] Food and water were available ad libitum. Mice were acclimatised to the experimental environment for 4-5 days prior to initiating the experiments. • ii. Oral drug administration. AD01 and PhX6 were prepared in 100% Millipore […] prepared in an aqueous suspension of 0.5% HPMC (w/v) containing 0.2% Tween 80 (v/v). The weighed compounds were sonicated and vortexed to ensure all solutions were homogenous. […] The total volume per administration was 200 μL. Blood samples were collected post-dose in lithium heparin microvials via tail bleeding at predetermined intervals at 0.5, 1, 3, 5, 8, 10 and 24 h. Samples were gently vortexed and stored at -80°C until analysis. • iii. Intravenous administration. AD01 and PhX6 were prepared in 100% Millipore […] prepared in an organic vehicle consisting of 10% N,N-dimethylacetamide, 30% polyethylene glycol 400 (PEG), 50% polypropylene glycol (PPG) and 10% ethanol (1:3:5:1, v/v) for intravenous (iv) dosing at 10 mg/kg. The total volume of administration was 80 μL. Blood samples were collected post-dose in lithium heparin microvials via tail bleeding at predetermined intervals at 0.16, 0.5, 1, 3, 5, 8, 10 and 24 h. Samples were gently vortexed and stored at -80°C until analysis. • iv. Sample processing and analysis. […] The mixture was vortexed vigorously for 1 min, and 5 μL of the supernatant were injected onto the analytical column following centrifugation (5590 g for 5 min). A Shimadzu HPLC and reverse phase Gemini NX-C18 column coupled to an AB Sciex 3200 Q TRAP MS was operated at unit resolution in the multiple reaction monitoring (MRM) mode as described above. […] Data analysis. Drug concentration versus time plots for each compound were used to determine maximal drug concentration C max, time T max to reach C max, elimination half-life t 1/2 and the area under the concentration-time curve from time zero to infinity, AUC0-inf. From these values the PK parameters clearance CL, volume of distribution Vd and oral bioavailability BA were determined using the non-compartmental analysis Microsoft Excel Add-In PKSolver ([Zhang et al., 2010]).

[12] abbreviates: C57BL/6, mouse, 10 mg/kg, mice, intravenous, whole blood.
Setting [13] is: C57BL/6, mouse, whole blood, po, 5 mg/kg.

SMILES strings stand for the structures. Where “and” joins values, the source holds several entries; their conditions need not be identical. Equal values may be shown once. Read-outs that look alike come from different tables or passages of the source.

In general, IC50 refers to the concentration at which inhibition is half-maximal. For orientation: solubility means how much of the substance goes into solution per volume. One may read the CLint scaled as the capacity of the preparation to metabolise the compound, expressed as a volume cleared per time. Usually Cmax stands for the highest concentration seen after dosing. The term Tmax denotes the time from dosing to the highest level.

On to `CCN(CC)CCCC(C)Nc1ccnc2cc(Cl)ccc12` (stereo not shown) [CQ, chloroquine, reference compound], for which the IC50 worked out at 9.9 ± 0.4 nM in series [1] and 142 ± 16.8 nM in series [2].

As for `CN(C)c1ccc2nc3ccc(=[N+](C)C)cc-3sc2c1` [MB, methylene blue], the “Interaction with artemisone, gametocytocidal activity” value in series [3] is recorded as “synergistically enhanced”. Moreover, in series [4], the Bioavailability is on record as 72.3± 23.9% and the Mean terminal half-life is 5.25 h. Moreover, the Protein bound in series [5] was 94%. The “Interaction with artemisone against the asexual blood stage” value in [6] is recorded as “only an additive effect”.

Take `CCNC(=S)NN=C(c1ccccn1)c1ccccn1` [DpNEt]: the solubility at 2 h in [7] (PBS pH 2, read-out: Predicted solubility pH 2) was > 150 µM; in series [7] (PBS pH 6.5, read-out: Predicted solubility pH 6.5) it was > 150 µM; in series [7] (PBS pH 7.4, read-out: Predicted solubility pH 7.4), > 150 µM. The CLint scaled in series [8] worked out at 22.3 mL/min/kg; in [9], 4 mL/min/kg. The half-life in [10] is > 2.5 h; in series [11] (C57BL/6, mouse, whole blood, iv, 10 mg/kg, mice, intravenous, whole blood, read-out: t1/2 (converted)), 1.2 h. Moreover, the Vd in [11] (setting [12]) came to 1 ± 0.16 L/kg. This compound had a clearance in [11] (setting [12]) of 10.2 ± 0.93 mL/min/kg. Also, in [11] (setting [13]), the Cmax amounted to 6.32 ± 1.15 µM. The Tmax in [11] (setting [13]) is 0.7 ± 0.12 h. The “AUC0-∞” value stood at 1795 ± 198 µmol·min/L in [11] (mice, intravenous, whole blood) and 550 ± 148 µmol·min/L in [11] (mice, oral gavage: AD01 4.6, PhX6 4.5, DpNEt 5 mg/kg). Besides, in series [11] (mice, intravenous, whole blood), the t1/2 stood at 1.12 ± 0.13 h. Besides, the BA in series [11] (mice, oral bioavailability) was 8% and 8 ± 2%.

Values taken from paper PMC10800708, “Efficacies and ADME properties of redox active methylene blue and phenoxazine analogues for use in new antimalarial triple drug combinations with amino-artemisinins” (Frontiers in Pharmacology, 2024).
